{"source": "patent US8642656B2", "about": "“Calixarene-based peptide conformation mimetics, methods of use, and methods of making” (priority 2004, dated 2014)", "key": {"B16 melanoma": {"test_system": "B16 melanoma", "experiment": "B16 melanoma tumor growth model in mice", "assay_type": "in vivo", "conditions": "tumor-bearing mice", "protocol": "Female athymic nude mice (nu/nu, 5-6 weeks old) were used. These mice were purchased from the National Cancer Institute and allowed to acclimatize to local conditions for at least one week. Animals were given water and standard chow ad libitum, and were kept on a 12-hour light/dark cycle. All experiments were approved by the University of Minnesota Research Animal Resources ethical committee. Mice were randomized and split into three groups: 1) human serum albumin (10 mg/kg/day), 2) βpep-25 (10 mg/kg/day) and 3) peptide mimetic agent (5 mg or 10 mg/kg/day). Test compounds were diluted in DMSO and administered using osmotic mini-pumps (Durect, Cupertino, Calif.). Exponentially growing MA148 human ovarian carcinoma cells, kindly provided by Prof. Ramakrishnan (R. P. Dings et al., Cancer Res., 63, 382-385 (2003)) or B16 mouse melanoma cells were cultured in RPM1 1640 medium (Life Technologies, Grand Island, N.Y.). […]\nTumor volume was determined by measuring the diameters of tumors using calipers (Scienceware, Pequannock, N.J.) using the equation for the volume of a spheroid: (a^2×b×[…])/6, where ‘a’ is the width and ‘b’ the length or the tumor. […] Tumor weights correlated well with tumor volumes calculated in this way. Statistical differences in tumor growth curves were analyzed using the two-way ANOVA test."}, "endothelial cell (EC)": {"test_system": "endothelial cell (EC)", "experiment": "EC Proliferation Assay, [3H]thymidine incorporation (Example 36, Table 1)", "assay_type": "cell-based", "conditions": "Table 1 and FIG. 3", "protocol": "Human umbilical vein derived EC(HUVEC) were harvested from normal human umbilical cords by perfusion with 0.125% trypsin/EDTA as described in Groenewegen et al., J. Exp. Med. 164, 131-143 (1986). For determination of quiescent EC phenotype isolated ECs were immediately fixed in 1% paraformaldehyde. Human microvascular ECs (MVECs) were isolated. ECs were cultured in fibronectin coated tissue culture flasks in culture medium (RPMJ-1640 with 20% human serum (HS), supplemented with 2 mM glutamine and 100 U/ml penicillin and 0.1 mg/ml streptomycin).\nEC proliferation was measured using a [^3H]thymidine incorporation assay. ECs were seeded at 5000 cells/well in flatbottomed tissue culture plates and grown for 3 days, in the absence or presence of regulators, in culture medium. During the last 6 hours of the assay, the culture was pulsed with 0.5μ Ci [methyl-^3H]thymidine/well."}, "LPS from K. pneumoniae": {"test_system": "LPS from K. pneumoniae", "experiment": "LPS neutralization assay (Limulus amoebocyte lysate, QCL-1000)", "assay_type": "biochemical, Klebsiella pneumoniae", "conditions": "read-out: IC50 values (μM) for LPS binding, Klebsiella", "how_it_was_run": "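Absorbance at 405-410 nm tracks pNA released from a synthetic substrate by LPS-activated lysate enzyme. Compounds were titrated against 0.04 units of each LPS. IC50 values derive from sigmoidal curve fitting.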"}, "B16F10 tumor cells": {"test_system": "B16F10 tumor cells", "experiment": "Proliferation of B16F10 tumor cells", "assay_type": "cell-based, murine"}}, "note": "Entries after “also recorded” stand apart in the source; their conditions may differ. Read-outs that look alike come from different tables or passages of the source.", "data": [{"compound": "5,11,17,23-Tetra-tert-butyl-25,27-bis(2-guanidinoethoxy)-26,28-dihydroxy calix[4]arene trifluoroacetic acid salt [Compound 27]", "values": [{"measurement": "B16 tumor growth (in words)", "setting": "B16 melanoma", "result": "significantly inhibited"}, {"measurement": "antiangiogenic activity (in words)", "setting": "endothelial cell (EC); trifluoroacetic acid salt", "result": "excellent antiangiogenic activity; also recorded: exceptional antiangiogenic activity"}, {"measurement": "IC50", "setting": "LPS from K. pneumoniae; Table 3, errors estimated ±30%", "result": "> 5", "unit": "µM"}, {"measurement": "IC50", "setting": "B16F10 tumor cells; read-out: IC50 against B16F10 tumor cells", "result": 10, "unit": "µM"}]}, {"compound": "CN(C)CCNC(=O)COc1c2cccc1Cc1cccc(c1OCC(=O)NCCN(C)C)Cc1cccc(c1OCC(=O)NCCN(C)C)Cc1cccc(c1OCC(=O)NCCN(C)C)C2", "note": "[Compound 40]", "values": [{"measurement": "B16 tumor growth (in words)", "setting": "B16 melanoma", "result": "significantly inhibited"}, {"measurement": "antiangiogenic activity (in words)", "setting": "endothelial cell (EC)", "result": "exceptional antiangiogenic activity"}, {"measurement": "antiangiogenic activity (in words)", "setting": "endothelial cell (EC); listed as KM0118 (40)", "result": "excellent antiangiogenic activity"}, {"measurement": "IC50", "setting": "LPS from K. pneumoniae; Table 2", "result": 1.5, "unit": "µM"}, {"measurement": "IC50", "setting": "LPS from K. pneumoniae; Table 3, errors estimated ±30%", "result": 1.5, "unit": "µM"}, {"measurement": "IC50 against B16F10 tumor cells", "setting": "B16F10 tumor cells", "result": "neither demonstrated activity"}]}]}
